# Test: loss of righting test (muscle relaxant activity)
# Assay type: in vivo
compound,measurement,setting,value
Nc1cccc(-c2ccccc2)c1CC(=O)O [Example 6-phenyl],Percent loss of Righting reflex,Dose 50 mg/kg,0%
same,Percent loss of Righting reflex,Dose 100 mg/kg,100%

# From EP0089426A1, “2-Amino-6-biphenylacetic acids” (A.H. ROBINS COMPANY, INCORPORATED, priority 1982, dated 1983)
